Measured values taken from publication PMC2859942 (PLoS ONE, 2010).

Columns and labels:
[1] = system: recombinant viruses (patient IN amplicons in pHXB2-ΔIN backbone) in MT4-LTR-eGFP cells; test: Drug susceptibility testing of replication-competent recombinant viruses (phenotypic sensitivity, eGFP readout); assay type: cell-based, HIV-1; conditions: for EVG FC (elvitegravir sensitivity fold-change in IC50): vs IIIB HIV-1 wild-type reference
[2] = system: IN WT, IN Y143C and IN Y143R; assay type: biochemical, HIV-1; conditions: strand transfer observed in the 3′end processing assay, uncleaved substrate, three enzymes
[3] = samples with the Y143C/H/R mutations

| SMILES | median RAL FC [1, 3] | range of RAL FC [1, 3] | concentration of drug for complete inhibition of ST [2] [µM] | EVG FC (elvitegravir sensitivity fold-change in IC50) ([1]; patient 1, D0, integrase mutations V72I I203M) | EVG FC (elvitegravir sensitivity fold-change in IC50) ([1]; patient 1, M3 on RAL, V72I L74L/M T97A/T Y143C I203M) | EVG FC (elvitegravir sensitivity fold-change in IC50) ([1]; patient 1, M9 (RAL removed after month 6), V72I I203M) | EVG FC (elvitegravir sensitivity fold-change in IC50) ([1]; patient 1, M12 (RAL removed after month 6), V72I I203M) | EVG FC (elvitegravir sensitivity fold-change in IC50) ([1]; patient 2, D0, V151I/V) | EVG FC (elvitegravir sensitivity fold-change in IC50) ([1]; patient 2, M3 on RAL, N155N/H) | EVG FC (elvitegravir sensitivity fold-change in IC50) ([1]; patient 2, M6 on RAL, T97A/T G163G/R Y143Y/C/H/R) | EVG FC (elvitegravir sensitivity fold-change in IC50) ([1]; patient 2, M9 on RAL, T97A/T G163G/R Y143Y/C/H/R) | EVG FC (elvitegravir sensitivity fold-change in IC50) ([1]; patient 3, D0, V72I) | EVG FC (elvitegravir sensitivity fold-change in IC50) ([1]; patient 3, M6 on RAL, V72I T97A/T Y143C/H/R/Y) | EVG FC (elvitegravir sensitivity fold-change in IC50) ([1]; patient 3, M12 on RAL, V72I T97A/T Y143C/H/R/Y) | median EVG FC [1, 3] | range of EVG FC [1, 3] |
| --- | --- | --- | --- | --- | --- | --- | --- | --- | --- | --- | --- | --- | --- | --- | --- | --- |
| Cc1nnc(C(=O)NC(C)(C)c2nc(C(=O)NCc3ccc(F)cc3)c(O)c(=O)n2C)o1 [RAL, raltegravir] | 24.83 | 5.87–51.95 | 0.4 |  |  |  |  |  |  |  |  |  |  |  |  |  |
| COc1cc2c(cc1Cc1cccc(Cl)c1F)c(=O)c(C(=O)O)cn2[C@H](CO)C(C)C [EVG, elvitegravir] |  |  |  | 0.89 | 1.56 | 0.83 | 1.43 | 0.94 | 6.05 | 6.23 | 2.68 | 0.60 | 3 | 9.57 | 3 | 1.56–9.57 |
